Assay type: physicochemical
Conditions: for melatonin available in the solution / solubilized: 7 min, 0.2 mg/mL
Description: The water solubility of non-compacted melatonin (starting material used for compaction in Example 1) and the solubility of the compacted melatonin prepared in Example 1 were compared.
Three samples of 10 mg each of non-compacted melatonin and three samples of 10 mg each of compacted melatonin were introduced in separate beakers and tap water at 22 °C was added to each beaker to a volume of 10, 25 or 50 ml (assays A, B and C, respectively). Each tested mixture was sonicated for 5 minutes and subsequently subjected to magnetic stirring at 200 rpm for 2 more minutes.

SMILES | Solubility test, assay A (10 mg / 10 ml) | Solubility test, assay B (10 mg / 25 ml) | melatonin available in the solution / solubilized [%] | dissolution rate compared with non-compacted melatonin (ocular inspection, in each of assays A, B and C (10 mg in 10, 25 or 50 ml water)) | melatonin remained as solid, not dissolved (HPLC analysis, assay C, 10 mg in 50 ml tap water at 22 °C) [%]
COc1ccc2[nH]cc(CCNC(C)=O)c2c1 [Compacted-melatonin, N-[2-(5-methoxy-1H-indol-3-yl)ethyl)acetamide] | (partially dissolved) | (partially dissolved) | 100 | higher dissolution rate | 
COc1ccc2[nH]cc(CCNC(C)=O)c2c1 [Non-compacted melatonin, N-[2-(5-methoxy-1H-indol-3-yl)ethyl)acetamide] | (partially dissolved) | (partially dissolved) | 79 |  | 21
